Nine compounds from US5139945A, “Thermostable alginate lyase from Bacillus steraothermophilus” (Novo Industri A/S, priority 1988, dated 1992) can be followed below.

This experiment concerns Alginate lyase from Bacillus stearothermophilus. Nature of the experiment: Effects of chemicals commonly used in water cooling systems on alginate lyase activity. Type of experiment: biochemical. The conditions noted are these: for Inhibition (%) of Chemicals on Enzyme Activity: chemical at 10 mM final concentration, 16 hours incubation; for inhibition of the enzyme (in words): mineral content of cooling water. How it is done:
Alginate lyase activity (increase in optical density at 230 nm) at 55° C. was monitored with sodium alginate as the substrate. Constant amounts of substrate, enzyme and MgCl2 (10 mM) were present in all reactions. Citrate-phosphate buffer was used between pH 5.0 and 6.5 and phosphate buffer was used between pH 6.0 and 8.0.
EDTA (ethylene diamine tetraacetate), NaCl, FeSO4, NaAlO2, Na2 MoO4, Zn, glutaraldehyde hydrazine and sodium nitrite were tested at the final concentration of 10 mM. Alginate lyase activity was monitored as described in Example 2 over 16 hours incubation.

For the compound `NN` [hydrazine], the “Inhibition (%) of Chemicals on Enzyme Activity” value (“Inhibition (%) of Chemicals” for short) came to 0%.

Regarding `[Zn]` [Zn], the “Inhibition (%) of Chemicals” value amounted to 43.7% and the “inhibition of the enzyme (in words)” value is on record as “partially inhibit”.

For `[Na+].[Na+].[O]=[Mo](=[O])([O-])[O-]` [Na2 MoO4], the “Inhibition (%) of Chemicals” value was determined as 0%.

With `O=S(=O)([O-])[O-].[Fe+2]` [FeSO4], the “Inhibition (%) of Chemicals” value was 0%.

Turning to `O=C(O)CN(CCN(CC(=O)O)CC(=O)O)CC(=O)O` [EDTA, ethylene diamine tetraacetate], the “Inhibition (%) of Chemicals” value stood at 0%.

Regarding `[Na+].[O]=[Al-]=[O]` [NaAlO2], the “Inhibition (%) of Chemicals” value worked out at 0%.

Regarding `[Cl-].[Na+]` [NaCl], the “Inhibition (%) of Chemicals” value came out at 48.7% and the “inhibition of the enzyme (in words)” value was “partially inhibit”.

Consider `O=N[O-].[Na+]` [NaNO2, sodium nitrite], for which the “Inhibition (%) of Chemicals” value amounted to 0%.

Consider `O=CCCCC=O` [glutaraldehyde], for which the “Inhibition (%) of Chemicals” value came to 0%.
